Calls of active or inactive are those of the source. The calls are words filed in the database; no cut-off is given here.
Columns and labels:
Assay type in all cases: functional, cell-based
KB [1] = assay: Cytotoxicity against human KB cells at < 10 uM
LoVo [2] = assay: Cytotoxicity against human LoVo cells at < 10 uM
LoVo [3] = assay: Cytotoxicity against human LoVo cells
KB [4] = assay: Cytotoxicity against human KB cells

Structure (SMILES)	Activity (KB [1])	Activity (LoVo [2])	IC50 (LoVo [3])	IC50 (KB [4])
CCC[C@H]1NC(=O)c2csc(n2)[C@H](C)NC(=O)[C@H](C(C)C)N(C)C(=O)[C@H](C(C)C)NC(=O)[C@H]([C@@H](C)CC)OC(=O)[C@H]1C	inactive	inactive		
CCC[C@H]1NC(=O)c2csc(n2)[C@H](C)NC(=O)[C@H](C(C)C)N(C)C(=O)[C@H](Cc2ccccc2)N(C)C(=O)[C@H](C)OC(=O)[C@@H]1C [ULONGAMIDE A]			5 µM	1 µM
CCC[C@H]1NC(=O)c2csc(n2)[C@H](C)NC(=O)[C@H](C(C)C)N(C)C(=O)[C@H](Cc2ccc(O)cc2)N(C)C(=O)[C@H](C)OC(=O)[C@@H]1C [ULONGAMIDE B]			5 µM	1 µM
CCC[C@H]1NC(=O)c2csc(n2)[C@H](C)NC(=O)[C@H](Cc2ccccc2)N(C)C(=O)[C@H](Cc2ccc(O)cc2)N(C)C(=O)[C@H](C)OC(=O)[C@@H]1C [ULONGAMIDE C]			5 µM	1 µM
CCC[C@H]1NC(=O)c2csc(n2)[C@H](C)NC(=O)[C@H](C(C)C)N(C)C(=O)[C@H](Cc2ccc(O)cc2)N(C)C(=O)[C@H](C(C)C)OC(=O)[C@H]1C [ULONGAMIDE D]			5 µM	1 µM
CCC[C@H]1NC(=O)c2csc(n2)[C@H](C)NC(=O)[C@H](C(C)C)N(C)C(=O)[C@H](Cc2ccc(O)cc2)N(C)C(=O)[C@H]([C@H](C)CC)OC(=O)[C@H]1C [ULONGAMIDE E]			5 µM	1 µM

From ChEMBL document CHEMBL1150113, “Ulongamides A-F, new beta-amino acid-containing cyclodepsipeptides from Palauan collections of the marine cyanobacterium Lyngbya sp” (J Nat Prod, 2002)
